# Values quoted from earlier work in US20240197774A1, “Synthesis of Antimicrobial PVP-coated Bismuth Nanoparticles” (Board of Regents, The University of Texas System, priority 2021, published 2024).
# System: humans
# Details: intake for years, considered non-toxic
smiles,measurement,value
[Bi] [Bismuth],Intake,5 to 20 g/day/kg
